Assay results: ChEMBL document CHEMBL6083212, “The synthesis and bioactivities of ROCK2 inhibitors with 1,2-dithiolan-3-yl motif” (RSC Med Chem, 2024)
Calls of active or inactive are those of the source. No cut-off for these calls is given here.

Legend:
[1] = Cytotoxicity against mouse BV-2 cells by MTT assay; assay type: toxicity, cell-based; details: read-out: TC50 (the source's name)
BV-2 [2] = assay: Antiinflammatory activity in LPS-induced mouse BV-2 cells assessed as inhibition of IL-6 production at […] incubated for 24 hrs by ELISA analysis; assay type: functional; design: dose or concentration left out as unconfirmed
BV-2 [3] = assay: Antiinflammatory activity in LPS-induced mouse BV-2 cells assessed as inhibition of TNF-alpha production at […] incubated for 24 hrs by ELISA analysis; assay type: functional; design: dose or concentration left out as unconfirmed
[4] = Antioxidant activity assessed as DPPH radical scavenging activity at 1 mM incubated for 30 mins by absorbance based analysis; assay type: functional
[5] = Apparent volume of distribution during terminal phase in Sprague-Dawley rat at 10 mg/kg, iv measured upto 24 hrs by LC-MS analysis; assay type: ADME, organism-based; details: in vivo
[6] = Apparent volume of distribution during terminal phase in Sprague-Dawley rat at 10 mg/kg, ip measured upto 24 hrs by LC-MS analysis; assay type: ADME, organism-based; details: in vivo, read-out: Vz/F
[7] = Cmax in Sprague-Dawley rat at 10 mg/kg, ip measured upto 24 hrs by LC-MS analysis; assay type: ADME, organism-based; details: in vivo
[8] = Tmax in Sprague-Dawley rat at 10 mg/kg, ip measured upto 24 hrs by LC-MS analysis; assay type: ADME, organism-based; details: in vivo
Mus musculus = assay: Anti-inflammatory activity in CFA-induced acute arthritis C57BL/6 mouse model assessed as effect on foot swelling at 5 to 10 mg/kg, iv measured for 12 hrs; assay type: functional, organism-based; details: dose 5-10 mg/kg
[9] = Acute toxicity in C57BL/6 mouse assessed as change in organ index at 50 mg/kg, iv measured for 14 days; assay type: organism-based; details: in vivo, 336 h, time 14 day
[10] = AUC (0 to infinity) in Sprague-Dawley rat at 10 mg/kg, ip measured upto 24 hrs by LC-MS analysis; assay type: ADME, organism-based; details: in vivo
[11] = AUC (0 to infinity) in Sprague-Dawley rat at 10 mg/kg, iv measured upto 24 hrs by LC-MS analysis; assay type: ADME, organism-based; details: in vivo
[12] = AUC (0 to t) in Sprague-Dawley rat at 10 mg/kg, ip measured upto 24 hrs by LC-MS analysis; assay type: ADME, organism-based; details: in vivo
[13] = Oral bioavailability in Sprague-Dawley rat at 10 mg/kg measured upto 24 hrs by LC-MS analysis; assay type: ADME, organism-based; details: in vivo
[14] = Acute toxicity in C57BL/6 mouse assessed as change in mental state at 50 mg/kg, iv measured for 14 days; assay type: organism-based; details: in vivo, 336 h, time 14 day
[15] = Apparent clearance during terminal phase in Sprague-Dawley rat at 10 mg/kg, ip measured upto 24 hrs by LC-MS analysis; assay type: ADME, organism-based; details: in vivo, read-out: CLz/F (converted)
[16] = AUC (0 to t) in Sprague-Dawley rat at 10 mg/kg, iv measured upto 24 hrs by LC-MS analysis; assay type: ADME, organism-based; details: in vivo
[17] = Acute toxicity in C57BL/6 mouse assessed as change in body weight at 50 mg/kg, iv measured for 14 days; assay type: organism-based; details: in vivo, 336 h, time 14 day
[18] = Tmax in Sprague-Dawley rat at 10 mg/kg, iv measured upto 24 hrs by LC-MS analysis; assay type: ADME, organism-based; details: in vivo
[19] = Apparent clearance during terminal phase in Sprague-Dawley rat at 10 mg/kg, iv measured upto 24 hrs by LC-MS analysis; assay type: ADME, organism-based; details: in vivo
[20] = Cmax in Sprague-Dawley rat at 10 mg/kg, iv measured upto 24 hrs by LC-MS analysis; assay type: ADME, organism-based; details: in vivo
[21] = Drug metabolism in rat plasma assessed as 5-(1,1-dioxodithiolan-3-yl)pentyl 4-(5-isoquinolylsulfonyl)-1,4-diazepane-1-carboxylate metabolite formation at 10 mg/kg, iv; assay type: ADME, organism-based; details: in vivo
[22] = Drug metabolism in rat plasma assessed as 5-(1,2-dioxodithiolan-3-yl)pentyl 4-(5-isoquinolylsulfonyl)-1,4-diazepane-1-carboxylate metabolite formation at 10 mg/kg, iv; assay type: ADME, organism-based; details: in vivo
[23] = Drug metabolism in rat plasma assessed as 5-(1-oxodithiolan-3-yl)pentyl 4-(5-isoquinolylsulfonyl)-1,4-diazepane-1-carboxylate metabolite formation at 10 mg/kg, iv; assay type: ADME, organism-based; details: in vivo

| Structure (SMILES) | CC50 [1] [µM] | inhibition (BV-2 [2]) | inhibition (BV-2 [3]) | Activity [4] [%] | also measured |
| --- | --- | --- | --- | --- | --- |
| COc1cc(/C=C/C(=O)N2CCCN(S(=O)(=O)c3cccc4cnccc34)CC2)cc(OC)c1O | > 100 | 0.07% | 34.5% | 90.9 | – |
| CC1(C)C=Cc2cc(C(=O)N3CCCN(S(=O)(=O)c4cccc5cnccc45)CC3)ccc2O1 | > 100 | inactive | 31.5% | 48.7 | – |
| O=C(CCCCC1CCSS1)N1CCN(C(c2ccc(F)cc2)c2ccc(F)cc2)CC1 (stereo unspecified) | > 100 | 53.8% | 70.7% | 92 | Vz/F [5]: 0.7 L/kg; Vd/F [6]: 6.1 L/kg; Cmax [7]: 9950 ng/mL; Tmax [8]: 4.98 min; Activity (Mus musculus): Active; Activity [9]: Non-toxic; AUC(0-inf) [10]: 1660 ng·h/mL; AUC(0-inf) [11]: 3360 ng·h/mL; AUC(0-t) at 24 h [12]: 1630 ng·h/mL; bioavailability [13]: 48.5%; Activity [14]: Non-toxic; CL/F [15]: 102 mL/min/kg; AUC(0-t) at 24 h [16]: 3350 ng·h/mL; Activity [17]: Non-toxic; Tmax [18]: 4.98 min; CLz/F [19]: 2.9 L/h/kg; Cmax [20]: 20000 ng/mL |
| COc1cc(/C=C/C(=O)N2CCCN(S(=O)(=O)c3cccc4cnccc34)CC2)ccc1OCCCCCCO[N+](=O)[O-] | > 100 | 56.1% | 53.8% | 24.3 | – |
| COc1cc(/C=C/C(=O)N2CCCN(S(=O)(=O)c3cccc4cnccc34)CC2)ccc1OC(C)=O | > 100 | inactive | inactive | 28.7 | – |
| COc1cc(/C=C/C(=O)N2CCCN(S(=O)(=O)c3cccc4cnccc34)CC2)ccc1OCCO[N+](=O)[O-] | > 100 | 2.78% | 45.8% | 23.9 | – |
| O=C(CCCCC1CCSS1)N1CCN(C(c2ccccc2)c2ccccc2)CC1 (stereo unspecified) | 63 | 49.6% | 41% | 50.5 | – |
| O=C(OCCCCCC1CCSS1)N1CCCN(S(=O)(=O)c2cccc3cnccc23)CC1 (stereo unspecified) | > 100 | 86.7% | 53.9% | 91.4 | Vz/F [5]: 1.3 L/kg; Activity [9]: Non-toxic; AUC(0-inf) [11]: 1950 ng·h/mL; Drug metabolism [21]: metabolite_detected; Activity [14]: Non-toxic; AUC(0-t) at 24 h [16]: 1940 ng·h/mL; Drug metabolism [22]: metabolite_detected; Activity [17]: Non-toxic; Tmax [18]: 12 min; CLz/F [19]: 5.6 L/h/kg; Drug metabolism [23]: metabolite_detected; Cmax [20]: 12200 ng/mL |
| COc1cc(/C=C/C(=O)N2CCCN(S(=O)(=O)c3cccc4cnccc34)CC2)ccc1OCCCO[N+](=O)[O-] | > 100 | 6.42% | 30.9% | 19.1 | – |
| CC(=O)Oc1ccc(/C=C/C(=O)N2CCCN(S(=O)(=O)c3cccc4cnccc34)CC2)cc1 | > 100 | 26.3% | 49.5% | 29.2 | – |
| COc1cc(/C=C/C(=O)N2CCCN(S(=O)(=O)c3cccc4cnccc34)CC2)ccc1O | > 100 | inactive | 0.08% | 93 | – |
| CC(=O)Oc1ccc(/C=C/C(=O)N2CCCN(S(=O)(=O)c3cccc4cnccc34)CC2)cc1OC(C)=O | 44.2 | 22.6% | 17.8% | 82.4 | – |
| COc1cc(/C=C/C(=O)N2CCCN(S(=O)(=O)c3cccc4c(O)nccc34)CC2)ccc1OC(C)=O | > 20 | 25.9% | 22.6% | 48.7 | – |
